Earlier results in patent publication US20060100214A1, “Fast dissolving and taste masked oral dosage form comprising sildenafil” (priority 2002, published 2006).

Row | SMILES | maximal solubility (at pH2.0) | water solubility (as said in US 20020002172A1)
1 | CCCc1nn(C)c2c(=O)[nH]c(-c3cc(S(=O)(=O)N4CCN(C)CC4)ccc3OCC)nc12.O=C(O)CC(O)(CC(=O)O)C(=O)O [Sildenafil citrate, 1-[[3-(6,7-dihydro-1-methyl-7-oxo-3-propyl-1H-pyrazolo[4,3-d]pyrimidin-5-yl)-4-ethoxyphenyl]sulfonyl]-4-methylpiperazine citrate] | approximately 24 mg/ml | –
2 | CCCc1nn(C)c2c(=O)[nH]c(-c3cc(S(=O)(=O)N4CCN(C)CC4)ccc3OCC)nc12 [sildenafil free base, 1-[[3-(6,7-dihydro-1-methyl-7-oxo-3-propyl-1H-pyrazolo[4,3-d]pyrimidin-5-yl)-4-ethoxyphenyl]sulfonyl]-4-methylpiperazine] | – | very low water solubility
